This passage reports IC50 results from patent publication US20240262833A1, “FUSED HETEROCYCLIC DERIVATIVES AS NEGATIVE ALLOSTERIC MODULATORS OF MGLU7 RECEPTOR” (Addex Pharma S.A., priority 2021, published 2024).

Each structure is given as a SMILES string. Bounds are passed on as bounds.

For the experiment, the target named is T1, human metabotropic glutamate 7 receptor (hmGlu7) (Homo sapiens, UniProt Q14831).
T1 construct: expressed in transfected cells
T1 sequence (Q14831 35-922 isoform Q14831-2): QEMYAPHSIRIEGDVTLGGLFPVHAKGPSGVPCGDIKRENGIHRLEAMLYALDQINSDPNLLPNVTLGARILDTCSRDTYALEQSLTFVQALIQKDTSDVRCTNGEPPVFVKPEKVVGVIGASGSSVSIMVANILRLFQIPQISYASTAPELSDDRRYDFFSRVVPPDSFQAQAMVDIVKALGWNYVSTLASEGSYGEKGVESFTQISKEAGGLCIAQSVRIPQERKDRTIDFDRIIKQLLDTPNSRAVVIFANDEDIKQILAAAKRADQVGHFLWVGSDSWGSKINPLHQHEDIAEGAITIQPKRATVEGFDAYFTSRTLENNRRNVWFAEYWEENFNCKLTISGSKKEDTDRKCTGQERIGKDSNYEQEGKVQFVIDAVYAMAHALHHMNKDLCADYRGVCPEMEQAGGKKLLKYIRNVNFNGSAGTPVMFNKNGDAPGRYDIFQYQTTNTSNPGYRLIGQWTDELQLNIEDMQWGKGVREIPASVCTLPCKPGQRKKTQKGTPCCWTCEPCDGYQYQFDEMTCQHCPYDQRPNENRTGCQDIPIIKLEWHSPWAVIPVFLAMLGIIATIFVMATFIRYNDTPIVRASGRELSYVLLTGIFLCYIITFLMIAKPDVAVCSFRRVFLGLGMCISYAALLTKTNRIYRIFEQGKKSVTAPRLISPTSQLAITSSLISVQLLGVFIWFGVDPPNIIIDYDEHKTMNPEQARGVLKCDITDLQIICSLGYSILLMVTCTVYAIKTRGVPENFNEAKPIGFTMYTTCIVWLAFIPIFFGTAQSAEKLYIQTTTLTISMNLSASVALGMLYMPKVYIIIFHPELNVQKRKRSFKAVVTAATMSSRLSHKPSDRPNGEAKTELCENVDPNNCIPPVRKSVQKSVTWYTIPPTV
The experiment is described as follows: mGlu7 assay on HEK-expressing human mGlu7: fluorescent cell based Ca2+ mobilization assay (FLIPR), inhibition of EC80 L-AP4 response. Conditions: HEK-293 cells expressing hmGlu7; EC80 L-AP4 stimulation; mean of at least three independent experiments in duplicate; read-out: Ca2+ Flux (mean IC50). The source says: mGlu7 Assay on HEK-Expressing Human mGlu7
The cDNA encoding the human metabotropic glutamate 7 receptor (hmGlu7), (accession number NM_181874.2, NCBI Nucleotide database browser), was subcloned into an expression vector containing also the hygromycin resistance gene. In parallel, the cDNA encoding a G protein allowing redirection of the activation signal to intracellular calcium flux was subcloned into a different expression vector containing also the Puromycin resistance gene. Transfection of both these vectors into HEK293 cells with PolyFect reagent (Qiagen) according to supplier's protocol, and hygromycin and puromycin treatment allowed selection of antibiotic resistant cells which had integrated stably one or more copies of the plasmids. Positive cellular clones expressing hmGlu7 were identified in a functional assay measuring changes in calcium fluxes in response to glutamate and L-AP4 or known mGlu7 orthosteric antagonists.
HEK-293 cells expressing hmGlu7 were maintained in media containing DMEM, Fetal Bovine Serum (10%), Glutamax™ (2 mM), penicillin (100 units/mL), streptomycin (100 μg/mL), geneticin (100 μg/mL) and hygromycin-B (40 μg/mL) and puromycin (1 μg/mL) at 37° C. with 5% CO2 in a humidified atmosphere.
Fluorescent Cell Based-Ca^2+ Mobilization Assay Human mGlu7 HEK-293 cells were plated out 24 hours prior to a fluorescent cell-based calcium mobilization assay using FLIPR^384 assay (Molecular Device, Sunnyvale, CA, USA) in black-walled, clear-bottomed, poly-L-ornithine-coated 384-well plates at a density of 25,000 cells/well in a glutamine/glutamate free DMEM medium containing fetal bovine serum (10%), penicillin (100 units/mL), streptomycin (100 μg/mL) and doxycyline (1 μg/ml) at 37° C. with 5% CO2 in a humidified atmosphere.
On the day of the assay, the medium was aspirated and the cells were loaded with a 3 μM solution of Fluo4-AM (LuBioScience, Lucerne, Switzerland) in 0.03% pluronic acid. After 1 hour at 37° C./5% CO2, the non incorporated dye was removed by washing cell plate with the assay buffer. All assays were performed in a pH 7.4 buffered-solution containing 20 mM HEPES, 143 mM NaCl, 6 mM KCl, 1 mM MgSO4, 1 mM CaCl2, 0.125 mM sulfinpyrazone and 0.1% glucose.
After 10 s of basal fluorescence recording, various concentrations of the compounds of the invention were added to the cells. Changes in fluorescence levels were first monitored for 180 s in order to detect any agonist activity of the compounds. Then the cells were stimulated by an EC80 L-AP4 concentration for an additional 110 s in order to measure inhibiting activities of the compounds of the invention. EC80 L-AP4 concentration is the concentration giving 80% of the maximal glutamate response.
The concentration-response curves of L-AP4 or representative compounds of the present invention were generated using the Prism GraphPad software (Graph Pad Inc, San Diego, USA). The curves were fitted to a four-parameter logistic equation: […]
allowing determination of IC50 values.
The Table 3 below represents the mean IC50 obtained from at least three independent experiments of selected molecules performed in duplicate.
Background: A change in cytosolic calcium serves as a functional read-out for many receptors and channels.
Regarding `COc1cccc(-n2c(C)c3cnn(-c4ccc(N5CCOCC5)cc4)c(=O)c3c2C)c1` [1-70], the IC50 was in the range of 100 to 1000 nM.
The figure for `COc1cccc(-n2c(C)c3cnn(-c4ncccn4)c(=O)c3c2C)c1Cl` [1-203] is 100 to 1000 nM.
For `Cc1ccc(-n2c(C)c3cnn(-c4ccccn4)c(=O)c3c2C)c(C)c1` [1-201], the IC50 lay within 100 to 1000 nM.
Consider `COc1ccc(-n2c(C)c3cnn(-c4ncccn4)c(=O)c3c2C)cn1` [1-241], for which the half-maximal inhibitory concentration (IC50) lay in the range of 1000 to 10000 nM.
Regarding `COc1ccc(-n2c(C)c3cnn(-c4ccccc4)c(=O)c3c2C)cc1` [1-24], the IC50 was in the range of 100 to 1000 nM.
As for `Cc1c2cnn(-c3ncc(F)cn3)c(=O)c2c(C)n1-c1cccc2c1ccn2C1CC1` [1-214], the IC50 was less than 100 nM.
The figure for `COc1cccc(-n2c(C)c3cnn(-c4ccccn4)c(=O)c3c2C)c1Cl` [1-197] is 100 to 1000 nM.
Consider `Cc1c2cnn(-c3ccccn3)c(=O)c2c(C)n1-c1cccc(N2CCCC2)c1` [1-59], for which the IC50 was less than 100 nM.
Take `COc1ccnc(-n2ncc3c(C)n(-c4cccc(N5CCC5)c4)c(C)c3c2=O)c1` [1-229]: the IC50 is 100 to 1000 nM.
On to `Cc1c2cnn(-c3ccc(N4CCCC4)cc3)c(=O)c2c(C)n1-c1cccc(N2CCC2)c1` [1-168, 6-(3-(Azetidin-1-yl)phenyl)-5,7-dimethyl-2-(4-(pyrrolidin-1-yl)phenyl)-2,6-dihydro-1H-pyrrolo[3,4-d]pyridazin-1-one], for which the IC50 was in the range of 100 to 1000 nM.
Regarding `Cc1c2cnn(-c3ccc(I)cc3)c(=O)c2c(C)n1-c1cccc(N2CCC2)c1` [1-181], the IC50 fell in the range of 1000 to 10000 nM.
Then `Cc1c2cnn(C3CCCC3)c(=O)c2c(C)n1-c1cccc(N2CCC2)c1` [1-190], with 100 to 1000 nM; and `Cc1c2cnn(-c3cccc(C(N)=O)c3)c(=O)c2c(C)n1-c1cccc(N2CCC2)c1` [1-152], with 100 to 1000 nM.
On to `Cc1c2cnn(-c3ccccn3)c(=O)c2c(C)n1-c1cccc(N2CCC2)c1` [1-102, 6-(3-(Azetidin-1-yl)phenyl)-5,7-dimethyl-2-(pyridin-2-yl)-2,6-dihydro-1H-pyrrolo[3,4-d]pyridazin-1-one], for which the IC50 is less than 100 nM.
On to `COc1cccc(-n2c(C)c3cnn(-c4ccc(O)cc4)c(=O)c3c2C)c1` [1-145], for which the IC50 was less than 100 nM.
Then `Cc1c2cnn(-c3ccc(N4CCNC(=O)C4)cc3)c(=O)c2c(C)n1-c1cccc(N2CCC2)c1` [1-178], with less than 100 nM; and `Cc1c2cnn(-c3ccccn3)c(=O)c2c(C)n1-c1ccc(Cl)cc1` [1-3], with 100 to 1000 nM; and `Cc1c2cnn(-c3ccccc3)c(=O)c2c(C)n1-c1ccc(Cl)cc1` [1-8], with 100 to 1000 nM.
As for `Cc1c2cnn(-c3ccccn3)c(=O)c2c(C)n1-c1cc(N2CCC2)ccc1F` [1-196], the IC50 is less than 100 nM.
Consider `Cc1cnc(-n2ncc3c(C)n(-c4cccc(N5CCC5)c4)c(C)c3c2=O)nc1` [1-228], for which the IC50 was less than 100 nM.
For `Cc1ccc(-n2c(C)c3cnn(-c4ccccn4)c(=O)c3c2C)nc1` [1-56], the IC50 was 1000 to 10000 nM.
Regarding `Cc1c2cnn(-c3ccccn3)c(=O)c2c(C)n1-c1cccc(Oc2ccccc2)c1` [1-187], the IC50 was 1000 to 10000 nM.
Then `Cc1ccc(-n2c(C)c3cnn(-c4ccccn4)c(=O)c3c2C)cc1` [1-48], with 100 to 1000 nM; and `CNC(=O)c1ccc(-n2ncc3c(C)n(-c4cccc(OC)c4)c(C)c3c2=O)cc1` [1-113], with 100 to 1000 nM; and `COc1ccc(-n2ncc3c(C)n(-c4ccccn4)c(C)c3c2=O)cc1` [1-81], with 1000 to 10000 nM.
For `COc1cccc(-n2c(C)c3cnn(-c4ccc(N5CCOCC5)nc4)c(=O)c3c2C)c1` [1-91], the IC50 fell in the range of 100 to 1000 nM.
The figure for `Cc1c2cnn(-c3ccccn3)c(=O)c2c(C)n1-c1cccc(N2CC(F)(F)C2)c1` [1-153] is 100 to 1000 nM.
On to `CC(=O)c1ccc(-n2ncc3c(C)n(-c4cccc(N5CCC5)c4)c(C)c3c2=O)cc1` [1-171], for which the IC50 is less than 100 nM.
As to `Cc1c(OC2CC2)cccc1-n1c(C)c2cnn(-c3ncc(F)cn3)c(=O)c2c1C` [1-212], the IC50 was less than 100 nM.
Turning to `COc1cnc(-n2ncc3c(C)n(-c4cccc(N5CCC5)c4)c(C)c3c2=O)nc1` [1-224], the IC50 was less than 100 nM.
For `Cc1c2cnn(-c3ccccn3)c(=O)c2c(C)n1-c1cccc(-n2cccc2)c1` [1-142], the IC50 was less than 100 nM.
Turning to `Cc1c2cnn(-c3cccnc3)c(=O)c2c(C)n1-c1cccc(N2CCOCC2)c1` [1-64], the IC50 was 1000 to 10000 nM.
In the case of `CC(=O)c1ccc(-n2c(C)c3cnn(-c4ccccc4)c(=O)c3c2C)cc1` [1-31], the IC50 is less than 100 nM.
Consider `COc1ccc(-n2c(C)c3cnn(-c4ccc(OC)cc4)c(=O)c3c2C)cc1` [1-103], for which the IC50 is 100 to 1000 nM.
Take `COc1cccc(-n2c(C)c3cnn(-c4ccc(CNC(C)=O)cc4)c(=O)c3c2C)c1` [1-65]: the IC50 is less than 100 nM.
On to `CCOc1cccc(-n2c(C)c3cnn(-c4ccccn4)c(=O)c3c2C)c1` [1-77], for which the IC50 was 100 to 1000 nM.
For the compound `Cc1cccc(-n2c(C)c3cnn(-c4ccccc4)c(=O)c3c2C)c1` [1-6], the half-inhibitory concentration (IC50) was less than 100 nM.
In the case of `Cc1cccnc1-n1ncc2c(C)n(-c3cccc(N4CCC4)c3)c(C)c2c1=O` [1-159], the IC50 fell in the range of 100 to 1000 nM.
For the compound `Cc1cc(-n2ncc3c(C)n(-c4cccc(N5CCC5)c4)c(C)c3c2=O)cc(C)n1` [1-165], the IC50 is less than 100 nM.
Then `COc1cccc(-n2ncc3c(C)n(-c4ccccc4)c(C)c3c2=O)c1` [1-12], with less than 100 nM.
Turning to `COC(=O)c1ccc(-n2ncc3c(C)n(-c4cccc(OC)c4)c(C)c3c2=O)cc1OC` [1-105], the IC50 lay in the range of 100 to 1000 nM.
In the case of `Cc1c2cnn(-c3ccccn3)c(=O)c2c(C)n1-c1cccc(C2CC2)c1` [1-137], the IC50 lay in the range of 100 to 1000 nM.
`COCc1ccc(-n2ncc3c(C)n(-c4cccc(OC)c4)c(C)c3c2=O)cc1` [1-128]: the IC50 is 100 to 1000 nM.
For `COc1cccc(-n2c(C)c3cnn(-c4cncnc4)c(=O)c3c2C)c1` [1-95], the IC50 was in the range of 100 to 1000 nM.
As for `COc1ccccc1-n1c(C)c2cnn(-c3ccccc3)c(=O)c2c1C` [1-18], the IC50 was 100 to 1000 nM.
Regarding `COc1cccc(-n2c(C)c3cnn(-c4ccc(C(C)(C)C)cn4)c(=O)c3c2C)c1` [1-206], the IC50 lay within 100 to 1000 nM.
For the compound `Cc1c2cnn(-c3ccccc3)c(=O)c2c(C)n1-c1cccc(N2CCC2)c1` [1-141], the IC50 is less than 100 nM.
Regarding `Cc1c2cnn(-c3ncccc3F)c(=O)c2c(C)n1-c1cccc2c1ccn2C1CC1` [1-213], the IC50 was less than 100 nM.
Consider `CNC(=O)Cc1ccc(-n2ncc3c(C)n(-c4cccc(N5CCC5)c4)c(C)c3c2=O)cc1` [1-180], for which the IC50 is less than 100 nM.
In the case of `Cc1c2cnn(-c3ncc(F)cn3)c(=O)c2c(C)n1-c1cccc(N2CCC2)c1` [1-226], the IC50 was less than 100 nM.
Consider `COc1cccc(-n2c(C)c3cnn(-c4ncc(C)cn4)c(=O)c3c2C)c1Cl` [1-204], for which the IC50 fell in the range of 100 to 1000 nM.
Take `COc1cccc(-n2c(C)c3cnn(-c4cccc(CC#N)c4)c(=O)c3c2C)c1` [1-146]: the IC50 is less than 100 nM.
Consider `Cc1c2cnn(-c3ccccc3F)c(=O)c2c(C)n1-c1cccc(N2CCC2)c1` [1-177], for which the IC50 is less than 100 nM.
`Cc1c2cnn(-c3ccccc3)c(=O)c2c(C)n1-c1ccccc1` [1-4]: the IC50 fell in the range of 100 to 1000 nM.
In the case of `Cc1c2cnn(-c3ccc(S(=O)(=O)N(C)C)cc3)c(=O)c2c(C)n1-c1ccccc1` [1-87], the IC50 lay within 100 to 1000 nM.
With `COc1cccc(-n2c(C)c3cnn(-c4ccccc4F)c(=O)c3c2C)c1` [1-149], the IC50 was less than 100 nM.

As a reminder, the IC50 is the point on the concentration scale where inhibition reaches its midpoint.
